Where two headings read alike, the source gives them in different places.

This passage reports melting point and change in vivo results from patent publication US10392348B2, “2-oxo-3,4-dihydroquinoline compounds as plant growth regulators” (Syngenta Participations AG, priority 2015, dated 2019).

The subject of data set [1] is corn plants (variety NK OCTET). The data set is described as follows: Reduced plant water use in corn (foliar spray, repeated weighing of pots). Format: in vivo. Conditions: Zea mays, corn plants sprayed at 500 μM, average of 6 pots. In outline: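 Water use was summed over 0–2.5 days after application, from repeated day-time weighings of pots and corrected by ANCOVA for pre-application baseline. Plants, 12 days old, received foliar EC sprays diluted with water plus 0.4% rape seed methyl ester adjuvant.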

In data set [2] the test system is soybean plants (variety S20-G7). Kind of data set: Reduced plant water use in soybean (foliar spray, repeated weighing of pots). Format: in vivo. Conditions: Glycine max, foliar, Table B1, sprayed at 500 μM, vs negative control. Put shortly:
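Daytime water use was tracked by weighing pots of 12-day-old soybean after foliar spray of compound formulated as EC plus EXTRAVON 1 g/20 L. Cumulative total (0-2.5 DAA) sums a.m. and p.m. readings; values baseline-adjusted by covariance analysis against formulation-only negative control.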

Broadly, the melting point is the temperature, or range, at which the solid turns liquid. `CCCN1C(=O)CCc2cc(CNS(=O)(=O)c3ccc4ccccc4c3)ccc21` [Compound 3.075, N-[(2-oxo-1-propyl-3,4-dihydroquinolin-6-yl)methyl]naphthalene-2-sulfonamide] gave a melting point of 169 to 173 °C. Also, the change in vivo at 500 µM in data set [1] (0 h, water use during day time vs negative control, 0 DAA a.m. (10:30-12:50), read-out: % WU 0 DAA AM) was -9.8%. Also, in data set [1] (0 h, water use during day time vs negative control, 0 DAA p.m. (14:00-19:50), read-out: % WU 0DAA PM), the change in vivo at 500 µM is -7.9%. Also, the change in vivo at 500 µM in data set [1] (24 h, water use during day time vs negative control, 1 DAA a.m. (07:30-12:50), read-out: % WU 1DAA AM) was -8.2%. In data set [1] (24 h, water use during day time vs negative control, 1 DAA p.m. (14:00-19:50), read-out: % WU 1DAA PM), the change in vivo at 500 µM was -6.4%. In data set [1] (48 h, water use during day time vs negative control, 2 DAA a.m. (07:30-12:50), read-out: % WU 2 DAA AM), the change in vivo at 500 µM was -4.9%. The change in vivo at 500 µM in data set [1] (48 h, water use during day time vs negative control, 2 DAA p.m. (14:00-19:50), read-out: % WU 2 DAA PM) is -3.3%. In addition, the change in vivo at 500 µM in data set [1] (60 h, cumulative total water use 0-2.5 DAA (sum of the time points) vs negative control, read-out: % WU Total 0 to 2.5 DAA) is -6.3%. In data set [2] (0 h, 0 DAA a.m. (10:30-12:50), read-out: % WU 0 DAA AM), the change in vivo at 500 µM is -10.8%. Further, in data set [2] (24 h, 1 DAA a.m. (7:30-12:50), read-out: % WU 1DAA AM), the change in vivo at 500 µM is -2.1%. The change in vivo at 500 µM in data set [2] (24 h, 1 DAA p.m. (14:00-19:50), read-out: % WU 1DAA PM) is -0.6%. The change in vivo at 500 µM in data set [2] (48 h, 2 DAA a.m. (07:30-12:50), read-out: % WU 2 DAA AM) is -2.1%. Moreover, the change in vivo at 500 µM in data set [2] (48 h, 2 DAA p.m. (14:00-19:50), read-out: % WU 2 DAA PM) is -2%. For the same compound, the change in vivo at 500 µM in data set [2] (60 h, cumulative total WU (0-2.5 DAA), read-out: % WU Total 0 to 2.5 DAA) is -3.3%.
